PMC11374673, “Discovery of isoquinoline sulfonamides as allosteric gyrase inhibitors with activity against fluoroquinolone-resistant bacteria” (Nature Chemistry, 2024)

Tested on: E. coli W3110
Assay: H-89 derivatives rescreen, 50 µM
Format: cell-based
Conditions: Escherichia coli, H-89 derivative rescreen, highest 50 µM
Method: From glycerol stocks, E. coli W3110 was cultured on blood agar plates (PB5039A, Thermo Scientific) by overnight (18 ± 2 h) aerobic incubation at 37 °C. A single colony was transferred to tryptic soy broth (TSB, 02-200-500, Scharlab). The cultures were grown to exponential phase (OD600 of 0.5) at 37 °C. The bacterial suspensions were diluted 200-fold in cation-adjusted Mueller–Hinton broth (CAMHB) and 99 µl was added to a library of test compounds (1 µl 10 mM DMSO stock, per well in technical duplicates) in polypropylene 96-well microtitre plates to reach a volume of 100 µl and a final concentration of 100 µM for each test compound and a maximum of 1% DMSO. […] Screening hits were selected from the wells where no visible bacterial growth was observed, as compared with the inoculum controls containing 1% DMSO. The follow-up screen of H-89 derivatives was performed under similar conditions with a final concentration of 50 µM.

| MIC [µM] | Structure (SMILES) |
| --- | --- |
| > 50 | CC(C)(C)c1cc(C(=O)NCC#Cc2ccc(N)nc2)no1 [Compound 30] |
| > 50 | O=S(=O)(NCCNC/C=C/c1ccc(-c2cccnc2)cc1)c1cccc2cnccc12 [Compound 35] |
| > 50 | CC(C)(C)c1cc(NC(=O)CCC#Cc2cccnc2)no1 [Compound 27] |
| > 50 | CN(CCNC/C=C/c1ccc(-c2cccnc2)cc1)S(=O)(=O)c1cccc2cnccc12 [Compound 8] |
| > 50 | Nc1nccc2c(S(=O)(=O)NCCNC/C=C/c3ccc(-c4cccnc4)cc3)cccc12 [Compound 34] |
| > 50 | Nc1ccc(-c2ccc(CCC(=O)NCCNS(=O)(=O)c3cccc4cnccc34)cc2)cn1 [Compound 41] |
| > 50 | O=S(=O)(NCCNCCCc1ccc(-c2cnc3[nH]ccc3c2)cc1)c1ccc(Cl)cc1 [Compound 17] |
| > 50 | CC(C)(C)c1cc(NC(=O)CCC#Cc2ccncc2)no1 [Compound 33] |
| > 50 | O=C(CCc1ccc(-c2cnc3[nH]ccc3c2)cc1)NCCNS(=O)(=O)c1cccc2cnccc12 [Compound 44] |
| > 50 | O=S(=O)(NCCCCCCc1ccc(-c2cccnc2)cc1)c1cccc2cnccc12 [Compound 11] |
| > 50 | CN(CCNCCCc1ccc(-c2cccnc2)cc1)S(=O)(=O)c1cccc2cnccc12 [Compound 10] |
